# Assay results published in article PMC6406907, “A H2AX–CARP-1 Interaction Regulates Apoptosis Signaling Following DNA Damage” (Cancers, 2019).
# What was measured:
# Assay type in all cases: cell-based, human
# [1] = tested on: CARP-1, phospho-JNK1/2, phospho-H2AX, PARP; test: Western blot of CARP-1, phospho-JNK1/2, γH2AX, cleaved PARP in MDA-MB-468; settings: for expression of CARP-1, phospho-JNK1/2, phospho-H2AX / PARP cleavage: MDA-MB-468, WB; for PARP cleavage: robust cleaved PARP over 12-h treatment period; for CARP-1 levels and γH2AX: MDA-MB-468, WB / IF
# Description: Logarithmically growing cells were either untreated or treated with different agents for various time periods. The cells were lysed to prepare protein extracts. IP was carried out by incubating approximately 1 mg of the protein lysate with appropriate antibodies. The immunoprecipitates were then analyzed by SDS-PAGE, followed by WB with respective, interacting protein. For Gst-pulldown, Gst-H2AX or various His-TAT-HA-tagged CARP-1 peptides were generated in Escherichia coli (E. coli) BL21 cells essentially as described by us previously. Briefly, the competent E. coli BL-21 (DE3) pLysS cells were transformed separately with various recombinant pGEX-4T-1 or pTAT-HA constructs. The transformed cells were then subjected to selection by combined presence of ampicillin and chloramphenicol; various isolates for each transformation were obtained and bacterial lysates were characterized for expression of fusion peptides. Cells from each isolate were grown in 4 mL of LB medium containing ampicillin only until the optical density (OD)600 reached 0.4–0.8. Expression of fusion peptides was induced over 2–4 h incubation periods after Isopropyl β-D-1-thiogalactopyranoside (IPTG) addition. The cells were harvested, and pellets were stored at −80 °C overnight. The cell pellets were then lysed in 100–400 μL of bacterial protein extraction reagent (BPER) buffer (Thermo Scientific, Waltham, MA, USA, Cat# 78243) containing 2 μL/mL of 10 units/μL DNAse I (Boehringer Mannheim, Fremont, CA, USA, Cat # 776–785), and supernatant checked for expression of respective fusion peptides by WB. Following confirmation of expression, 5–20 μL of lysate expressing Gst fusion protein was first incubated with 20 μL of precleared glutathione sepharose in a final volume of 100 μL at 4 °C for 2 h with constant rotation. The sepharose beads were spun at 800× g for 2 min, and the pellet was washed 2–4 times with 100–200 μL of RIPA buffer (20 mM Tris-HCl (pH 7.5), 150 mM NaCl, 1 mM Na2EDTA, 1 mM EGTA, 1% NP-40, 1% sodium deoxycholate, 2.5 mM sodium pyrophosphate, 1 mM β-glycerophosphate, 1 mM Na3VO4, 1 µg/mL leupeptin) with 0.5 M NaCl. The beads were spun again as above, and mixed with 5–20 μL of E. coli lysate expressing His-TAT-HA CARP-1 peptides. The reactions were incubated further at 4 °C for 2 h with constant rotation. The peptide-bound sepharose beads were pelleted and washed with 100–200 μL of RIPA buffer with 0.1 M NaCl for 2–4 washes. In some cases, additional washes with 0.05 M NaCl buffer were carried out. After the final wash, the sepharose–protein complexes were spun, and then re-suspended in SDS loading buffer for electrophoresis on 12–15% SDS PAGE, followed by WB with appropriate antibodies.
# Here, we utilized human TNBC MDA-MB-468 and human cervical cancer HeLa cells to conduct an MTT-based dose-response analysis using Adriamycin and CFM compounds. […] Since Adriamycin, CFM-4, and CFM-4.16 have molecular masses of 543.3, 404.9, and 440.3, respectively, we chose to use an equimolar dose of each compound in the MTT assays. […] Prior reports established that phosphorylation of H2AX at serine 139 (γ-H2AX) is involved in DNA damage repair and apoptotic signaling by ATM/ATR and JNKs, respectively. Next, the MDA-MB-468, HeLa, and the kidney cancer UOK 262 cells were treated with a 10 μM dose of the CFM-4.16 or Adriamycin for various time periods. The cell lysates from the control, untreated, and treated cells were analyzed by WB for expression of CARP-1, phospho-JNK1/2, phospho-H2AX, and poly ADP ribose polymerase (PARP) proteins. […] The H2AX activation is also indicative of DNA damage and involves pro-apoptotic JNKs. Our data in Figure 1C and Figure S1B,C (Supplementary Materials) also show activation of JNKs; however, a robust JNK activation is co-incident with H2AX phosphorylation following treatments with Adriamycin or CFM-4.16. […]
# [2] = tested on: CARP-1, phospho-JNK1/2, phospho-H2AX; test: Western blot of CARP-1, phospho-JNK1/2, γH2AX in HeLa; settings: 10 μM, WB
# Description: Logarithmically growing cells were either untreated or treated with different agents for various time periods. The cells were lysed to prepare protein extracts. IP was carried out by incubating approximately 1 mg of the protein lysate with appropriate antibodies. The immunoprecipitates were then analyzed by SDS-PAGE, followed by WB with respective, interacting protein. For Gst-pulldown, Gst-H2AX or various His-TAT-HA-tagged CARP-1 peptides were generated in Escherichia coli (E. coli) BL21 cells essentially as described by us previously. Briefly, the competent E. coli BL-21 (DE3) pLysS cells were transformed separately with various recombinant pGEX-4T-1 or pTAT-HA constructs. The transformed cells were then subjected to selection by combined presence of ampicillin and chloramphenicol; various isolates for each transformation were obtained and bacterial lysates were characterized for expression of fusion peptides. Cells from each isolate were grown in 4 mL of LB medium containing ampicillin only until the optical density (OD)600 reached 0.4–0.8. […]
# Here, we utilized human TNBC MDA-MB-468 and human cervical cancer HeLa cells to conduct an MTT-based dose-response analysis using Adriamycin and CFM compounds. […] The cell lysates from the control, untreated, and treated cells were analyzed by WB for expression of CARP-1, phospho-JNK1/2, phospho-H2AX, and poly ADP ribose polymerase (PARP) proteins. […]
# [3] = tested on: MDA-MB-468 cells expressing EGFP or EGFP-CARP-1 (636–650); test: Flow cytometric analysis of apoptosis, MDA-MB-468 sublines; settings: 10 μM, 24 h, EGFP vs EGFP-CARP-1 (636–650)-expressing MDA-MB-468
# [4] = tested on: CARP-1, phospho-JNK1/2, phospho-H2AX, PARP; test: Western blot of CARP-1, phospho-JNK1/2, γH2AX, cleaved PARP in MDA-MB-468; settings: for CARP-1 and γH2AX increase after knock-down of CARP-1: MDA-MB-468, CARP-1 knock-down; for JNK1/2 and H2AX activation: cells overexpressing myc-His-tagged CARP-1, WB
SMILES,"H2AX activation ([1]; 10 μM Adriamycin, WB)","expression of CARP-1, phospho-JNK1/2, phospho-H2AX ([1]; 10 μM)",PARP cleavage ([1]; 10 μM),"time of earliest stimulation of PARP cleavage ([1]; 10 μM, MDA-MB-468, ""as early as"") [h]","γH2AX ([1]; MDA-MB-468, Adriamycin alone, WB)",CARP-1 levels and γH2AX [1],"expression of CARP-1, phospho-JNK1/2, phospho-H2AX [2]",cells undergoing apoptosis [3],CARP-1 and γH2AX increase after knock-down of CARP-1 [4],"levels of CARP-1 ([4]; MDA-MB-468, single agent (JNK-IN-8 at 5 μM), WB)",JNK1/2 and H2AX activation [4]
"COc1cccc2c1C(=O)c1c(O)c3c(c(O)c1C2=O)C[C@@](O)(C(=O)CO)C[C@@H]3O[C@H]1C[C@H](N)[C@H](O)[C@H](C)O1 [Adriamycin, doxorubicin, reference compound]",robust at 12 h,"stimulated expression of CARP-1, phospho-JNK1/2, and phospho-H2AX in a time-dependent manner",provoked PARP cleavage in a time-dependent manner,3,robust increase in γH2AX,robust increase in CARP-1 levels and γH2AX,"stimulated expression of CARP-1, phospho-JNK1/2, and phospho-H2AX in a time-dependent manner",generally higher percentage of EGFP-expressing cells undergoing apoptosis,abrogated CARP-1 and γH2AX increase,elevated levels of CARP-1,time-dependent stimulation of JNK1/2 and H2AX activation
O=C1N(Cc2ccccc2Cl)c2ccccc2C12NN=C(c1cccc(Cl)c1)S2 (stereo not drawn) [CFM-4.16],–,"stimulated expression of CARP-1, phospho-JNK1/2, and phospho-H2AX in a time-dependent manner",provoked PARP cleavage in a time-dependent manner,–,–,robust increase in CARP-1 levels and γH2AX,"stimulated expression of CARP-1, phospho-JNK1/2, and phospho-H2AX in a time-dependent manner",generally higher percentage of EGFP-expressing cells undergoing apoptosis,abrogated CARP-1 and γH2AX increase,–,time-dependent stimulation of JNK1/2 and H2AX activation
